Source: patent US20120066778A1, “CONTROL OF URIC ACID HOMEOSTASIS” (priority 2009, published 2012)

B1: mUox: intracellular variant of the urate oxidase from Aspergillus flavus codon-optimized for expression in mammalian cells (protein, UniProt Q00511 2-302, looked up)
Uricase: SAVKAARYGKDNVRVYKVHKDEKTGVQTVYEMTVCVLLEGEIETSYTKADNSVIVATDSIKNTIYITAKQNPVTPPELFGSILGTHFIEKYNHIHAAHVNIVCHRWTRMDIDGKPHPHSFIRDSEEKRNVQVDVVEGKGIDIKSSLSGLTVLKSTNSQFWGFLRDEYTTLKETWDRILSTDVDATWQWKNFSGLQEVRSHVPKFDATWATAREVTLKTFAEDNSASVQATMYKMAEQILARQQLIETVEYSLPNKHYFEIDLSWHKGLQNTGKNAEVFAPQSDPNGLIKCTVGRSSLKSKL
modifications: codon-optimized for mammalian expression
notes: intracellular variant of the urate oxidase from Aspergillus flavus codon-optimized for expression in mammalian cells

How the values were obtained:
[1] = system: UREX sensor circuit (mUTS, hucO8); assay: Uric acid response of UREX-controlled SEAP expression in cultured human cells; type: cell-based; details: 5 mM uric acid added to cultures transfected with pCK9 and pCK25, 48 h
Protocol: (d) Functional validation of the UREX sensor circuit. 4×10^4 HeLa cells were co-transfected with the UREX expression vectors pCK9 and pCK25 (see FIG. 1a) and cultivated for 48 h in the presence or absence of 5 mM uric acid before SEAP was quantified in the cell culture supernatant.
(e-g) Urate-dependent dose-response characteristics of UREX in the presence and absence of the human urate transporter URAT1. 3×10^5 HeLa (e), HEK-293 (f) or HT-1080 cells (g) were co-transfected with the UREX sensor plasmids pCK9 and pCK25 (see FIG. 1a) and either pURAT1 (PhCMV-URAT1-pA) or the isogenic control vector pcDNA3.1. The transfected populations were cultivated in medium supplemented with different uric acid concentrations and resulting SEAP levels were profiled after 48 h.
(b) Urate-based dose-response profile of the triple-transgenic HEK-293UREX15 cell line stably engineered for UREX-controlled SEAP and constitutive URAT1 expression. 5×10^4 HEK-293UREX15 were cultivated in the presence of different urate concentrations and SEAP levels were quantified in the culture supernatant after 72 h.
(c) Reversibility of the UREX-based uric acid sensor circuit. 2×10^5 HEK-293UREX15 cells were cultivated for 10 days while alternating uric acid concentrations from 0 to 5 mM every 72 h (arrows). […]

[2] = system: uric acid; assay: Urate reduction in culture medium by mUox/smUox-expressing HeLaURAT1 cells; type: cell-based, human; details: HeLaURAT1, 0.5 mM uric acid, 72 h, constitutive or mUTS-controlled expression
Protocol: (a) Profiling of urate reduction mediated by constitutive or UREX-controlled expression of an intracellular (mUox) or secretion-engineered (smUox) urate oxidase variant. 2×10^5 HeLaURAT1 cells were co-transfected with either (i) pCK65 (PUREX8-smUox-pA) and isogenic control vector pcDNA3.1, (ii) pCK65 (PUREX8-smUox-pA) and pCK25 (PhEF1α-mUTS-pA), (iii) pCK67 (PUREX8-mUox-pA) and pcDNA3.1 or (iv) pCK67 (PUREX8-mUox-pA) and pCK25 (PhEF1α-mUTS-pA). The cells were cultivated for 72 h with 0.5 mM uric acid before urate levels were determined in the culture supernatant.
(b) Urate degradation profiles UREX-controlled smUox expression. […]
SEAP levels are quantified in cell culture supernatants and mouse serum using a standard p-nitrophenylphosphate-based light absorbance time course (Berger, J., Hauber, J., Hauber, R., Geiger, R. & Cullen, B. R., Gene 66, 1-10 (1988)). Uric acid levels are assessed in cell culture supernatants, murine serum or urine using the Amplex® Red uric acid/uricase assay kit (Invitrogen, Basel, Switzerland, Cat. No. A22181) according to the manufacturer's protocol. […] The addition of uricase triggers the enzymatic conversion of uric acid to allantoin, CO2 and H2O2 that reacts, in the presence of horseradish peroxidase stoichiometrically with Amplex Red reagent to generate the red-fluorescent oxidation product resorufin which can be quantified at 585 nm.

| Molecule | effect on SEAP expression [1] | reduction of uric acid in the culture medium [2] |
| --- | --- | --- |
| O=c1[nH]c(=O)c2[nH]c(=O)[nH]c2[nH]1 [uric acid, 7,9-dihydro-3H-purine-2,6,8-trione] | derepresses SEAP expression | – |
| B1 | – | reduces uric acid |
